From ChEMBL document CHEMBL1201862, “PubChem BioAssay data set” (2004)
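Cells were grown in 96-well plates and exposed to each compound for 48 hours at five concentrations; endpoints were interpolated linearly between bracketing concentrations, or set to the highest concentration if not reached. GI50 marks 50% less growth.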 The source made the active and inactive calls. Rule as the data show it: active = GI50 up to about 1.1 µM and inactive = higher.

Legend:
Assay in all cases: DTP human tumour cell line panel, 48 h
SK-MEL-28 = tested on: SK-MEL-28
MOLT-4 = tested on: MOLT-4
SK-MEL-2 = tested on: SK-MEL-2
SNB-75 = tested on: SNB-75
T47D = tested on: T47D
PC-3 = tested on: PC-3
DU-145 = tested on: DU-145
HT-29 = tested on: HT-29
HCT-116 = tested on: HCT-116
HOP-92 = tested on: HOP-92
RXF 393 = tested on: RXF 393
SK-OV-3 = tested on: SK-OV-3
MDA-N = tested on: MDA-N
HCC 2998 = tested on: HCC 2998
M14 = tested on: M14
RPMI-8226 = tested on: RPMI-8226
LOX IMVI = tested on: LOX IMVI
SR = tested on: SR
SF-268 = tested on: SF-268
UO-31 = tested on: UO-31
ACHN = tested on: ACHN
IGROV-1 = tested on: IGROV-1
NCI-H460 = tested on: NCI-H460
SW-620 = tested on: SW-620
SNB-19 = tested on: SNB-19
COLO 205 = tested on: COLO 205
SK-MEL-5 = tested on: SK-MEL-5
Malme-3M = tested on: Malme-3M
Hs-578T = tested on: Hs-578T
NCI-H23 = tested on: NCI-H23
HCT-15 = tested on: HCT-15
OVCAR-5 = tested on: OVCAR-5
NCI/ADR-RES = tested on: NCI/ADR-RES
SF-295 = tested on: SF-295
SN12C = tested on: SN12C
NCI-H226 = tested on: NCI-H226
U-251 = tested on: U-251
UACC-62 = tested on: UACC-62
K562 = tested on: K562
CCRF-CEM = tested on: CCRF-CEM
OVCAR-4 = tested on: OVCAR-4
SF-539 = tested on: SF-539
MDA-MB-231 = tested on: MDA-MB-231
KM12 = tested on: KM12
MCF7 = tested on: MCF7
CAKI-1 = tested on: CAKI-1
TK-10 = tested on: TK-10
EKVX = tested on: EKVX
786-0 = tested on: 786-0
UACC-257 = tested on: UACC-257
OVCAR-3 = tested on: OVCAR-3
OVCAR-8 = tested on: OVCAR-8
BT-549 = tested on: BT-549
HL-60 = tested on: HL-60
A549 = tested on: A549
NCI-H522 = tested on: NCI-H522
HOP-62 = tested on: HOP-62
MDA-MB-435 = tested on: MDA-MB-435
A498 = tested on: A498

Measured: GI50

O=C1C(=Cc2cccc(Cl)c2)N=C(c2ccccc2)N1n1c(-c2ccccc2)nc2ccccc2c1=O
49.3 µM: HCT-15
inactive: SK-MEL-28 50.2 µM | MOLT-4 23.4 µM | SK-MEL-2 26.2 µM | SNB-75 29.9 µM | T47D 29.7 µM | PC-3 28.8 µM | DU-145 52.2 µM | HT-29 37.2 µM | HCT-116 10.8 µM | HOP-92 27 µM | RXF 393 33.5 µM | SK-OV-3 47.2 µM | MDA-N 33.8 µM | HCC 2998 30.7 µM | M14 22.7 µM | RPMI-8226 40.8 µM | LOX IMVI 31.3 µM | SR 37 µM | SF-268 32.4 µM | UO-31 34.4 µM | ACHN 37.7 µM | IGROV-1 35.2 µM | NCI-H460 6 µM | SW-620 45.3 µM | SNB-19 38.1 µM | COLO 205 40 µM | SK-MEL-5 32.4 µM | Malme-3M 50.8 µM | Hs-578T 41.4 µM | NCI-H23 20 µM | OVCAR-5 67.6 µM | NCI/ADR-RES 30.9 µM | SF-295 39 µM | SN12C 45.2 µM | NCI-H226 63.4 µM | U-251 28 µM | UACC-62 23.9 µM | K562 30.3 µM | CCRF-CEM 22.9 µM | OVCAR-4 42.3 µM | SF-539 27.9 µM | MDA-MB-231 50 µM | KM12 9.55 µM | MCF7 25.9 µM | CAKI-1 45.1 µM | TK-10 95.5 µM | EKVX 28.4 µM | 786-0 47.4 µM | UACC-257 32.1 µM | OVCAR-3 28 µM | OVCAR-8 28.7 µM | BT-549 23.7 µM | HL-60 24.2 µM | A549 32.9 µM | NCI-H522 16.4 µM | HOP-62 34.8 µM | MDA-MB-435 36.8 µM

C[C@@H]1S[C@H](c2ccccc2F)N2Cc3ccccc3N=C12
inactive: SK-MEL-28 40.7 µM | MOLT-4 18.2 µM | SK-MEL-2 16.8 µM | SNB-75 25.6 µM | T47D 24.1 µM | PC-3 22.9 µM | DU-145 33.7 µM | HT-29 19.5 µM | HCT-116 17.1 µM | HOP-92 17.3 µM | RXF 393 27.4 µM | SK-OV-3 25.1 µM | MDA-N 20.7 µM | HCC 2998 20 µM | M14 20.9 µM | RPMI-8226 20.6 µM | LOX IMVI 18.5 µM | SR 15.9 µM | SF-268 28.6 µM | UO-31 17.1 µM | ACHN 31.4 µM | IGROV-1 33.5 µM | NCI-H460 30.9 µM | SW-620 36.4 µM | SNB-19 30.6 µM | COLO 205 30.8 µM | SK-MEL-5 17 µM | Malme-3M 19.9 µM | Hs-578T 27.7 µM | NCI-H23 31.3 µM | OVCAR-5 28.2 µM | NCI/ADR-RES 24.7 µM | SF-295 26.2 µM | SN12C 18.7 µM | NCI-H226 30.1 µM | U-251 27.9 µM | UACC-62 19.1 µM | K562 22.9 µM | CCRF-CEM 30.6 µM | OVCAR-4 21 µM | SF-539 37.9 µM | MDA-MB-231 35 µM | KM12 27.3 µM | MCF7 31.6 µM | CAKI-1 20.9 µM | TK-10 36.7 µM | EKVX 24.8 µM | 786-0 23.4 µM | UACC-257 28.6 µM | OVCAR-3 34.4 µM | OVCAR-8 28.4 µM | BT-549 31.3 µM | HL-60 19.3 µM | A549 39.2 µM | NCI-H522 19.2 µM | HOP-62 29.8 µM | MDA-MB-435 23.5 µM
28.5 µM: HCT-15

O=C1Nc2ccccc2NC1C1OC(c2ccccc2)=CC1=O (centres undefined)
> 100 µM: HCT-15
inactive: SK-MEL-28 > 100 µM | MOLT-4 > 100 µM | SK-MEL-2 > 100 µM | SNB-75 > 100 µM | T47D > 100 µM | PC-3 > 100 µM | DU-145 > 100 µM | HT-29 > 100 µM | HCT-116 > 100 µM | HOP-92 > 100 µM | RXF 393 > 100 µM | SK-OV-3 > 100 µM | MDA-N > 100 µM | HCC 2998 > 100 µM | M14 > 100 µM | RPMI-8226 > 100 µM | LOX IMVI > 100 µM | SR > 100 µM | SF-268 > 100 µM | UO-31 > 100 µM | ACHN > 100 µM | IGROV-1 > 100 µM | NCI-H460 > 100 µM | A498 > 100 µM | SW-620 > 100 µM | SNB-19 > 100 µM | COLO 205 > 100 µM | SK-MEL-5 > 100 µM | Malme-3M > 100 µM | Hs-578T > 100 µM | NCI-H23 > 100 µM | OVCAR-5 > 100 µM | NCI/ADR-RES 82.2 µM | SF-295 > 100 µM | NCI-H226 > 100 µM | U-251 > 100 µM | UACC-62 > 100 µM | K562 > 100 µM | CCRF-CEM > 100 µM | OVCAR-4 > 100 µM | SF-539 > 100 µM | MDA-MB-231 > 100 µM | KM12 > 100 µM | MCF7 > 100 µM | CAKI-1 > 100 µM | TK-10 > 100 µM | EKVX > 100 µM | 786-0 > 100 µM | UACC-257 40.8 µM | OVCAR-3 > 100 µM | OVCAR-8 > 100 µM | BT-549 > 100 µM | HL-60 > 100 µM | A549 > 100 µM | MDA-MB-435 > 100 µM

COc1c(O)c(OC)c2oc(-c3ccc(O)cc3)c(OC)c(=O)c2c1O
28.1 µM: HCT-15
inactive: SK-MEL-28 81.8 µM | MOLT-4 57 µM | SK-MEL-2 42.5 µM | T47D 10.2 µM | PC-3 48.6 µM | DU-145 29.3 µM | HT-29 32.4 µM | HCT-116 46.3 µM | SK-OV-3 17 µM | MDA-N 79.4 µM | HCC 2998 32 µM | M14 47.2 µM | RPMI-8226 56.9 µM | LOX IMVI 30.9 µM | SR 60.1 µM | SF-268 8.73 µM | UO-31 34.7 µM | ACHN 33.6 µM | IGROV-1 17.8 µM | NCI-H460 45.7 µM | A498 30.3 µM | SW-620 34.5 µM | SNB-19 > 100 µM | COLO 205 99.5 µM | SK-MEL-5 17.4 µM | Malme-3M 13.4 µM | Hs-578T 18.4 µM | NCI-H23 30.8 µM | OVCAR-5 > 100 µM | NCI/ADR-RES 61 µM | SF-295 > 100 µM | SN12C 70.6 µM | NCI-H226 50.9 µM | U-251 23.9 µM | UACC-62 22.7 µM | K562 55.6 µM | CCRF-CEM 37.5 µM | SF-539 55.3 µM | MDA-MB-231 42.5 µM | KM12 88.5 µM | MCF7 41.7 µM | CAKI-1 27.8 µM | TK-10 61.5 µM | EKVX 97.5 µM | 786-0 17.8 µM | UACC-257 76.2 µM | OVCAR-3 14.8 µM | OVCAR-8 38 µM | BT-549 43.2 µM | HL-60 > 100 µM | A549 44.2 µM | NCI-H522 26.1 µM | HOP-62 24.4 µM | MDA-MB-435 33.6 µM

O=[N+]([O-])C(C=C(n1nnc2ccccc21)n1nnc2ccccc21)=C(n1nnc2ccccc21)n1nnc2ccccc21
active: SNB-19 0.975 µM
> 100 µM: HCT-15
inactive: MOLT-4 26.2 µM | T47D > 100 µM | PC-3 > 100 µM | DU-145 > 100 µM | HT-29 > 100 µM | HCT-116 46.2 µM | HOP-92 84.1 µM | RXF 393 > 100 µM | SK-OV-3 > 100 µM | MDA-N > 100 µM | HCC 2998 > 100 µM | M14 > 100 µM | RPMI-8226 44.6 µM | LOX IMVI > 100 µM | SR 23 µM | SF-268 > 100 µM | UO-31 22.1 µM | ACHN > 100 µM | IGROV-1 > 100 µM | NCI-H460 > 100 µM | A498 > 100 µM | SW-620 > 100 µM | COLO 205 > 100 µM | Malme-3M > 100 µM | Hs-578T 58.5 µM | NCI-H23 > 100 µM | OVCAR-5 > 100 µM | NCI/ADR-RES > 100 µM | SF-295 > 100 µM | SN12C > 100 µM | NCI-H226 > 100 µM | U-251 > 100 µM | UACC-62 > 100 µM | K562 42.3 µM | CCRF-CEM 25 µM | SF-539 > 100 µM | MDA-MB-231 > 100 µM | KM12 > 100 µM | MCF7 > 100 µM | CAKI-1 > 100 µM | TK-10 > 100 µM | EKVX > 100 µM | 786-0 > 100 µM | OVCAR-3 > 100 µM | OVCAR-8 > 100 µM | BT-549 > 100 µM | HL-60 41 µM | A549 > 100 µM | HOP-62 > 100 µM | MDA-MB-435 > 100 µM
